This is an account of results in patent US20220315572A1, “SUBSTITUTED CYANOPYRROLIDINES WITH ACTIVITY AS USP30 INHIBITORS” (MISSION THERAPEUTICS LIMITED, priority 2019, published 2022).

In data set [1] the test system is Salmonella typhimurium strains TA98, TA100, TA1535 and TA97a and the Escherichia Coli strain WP2 uvrA pKM101. Briefly: Bacterial reverse mutation assay (Ames). The settings on record: up to 100 μg/well (equivalent to 5000 μg/plate), with and without metabolic activation. As for the experimental part: The bacterial reverse mutation assay (Ames Test) may be used to evaluate the mutagenic properties of compounds of the invention, commonly by using the bacterial strain Salmonella typhimurium, which is mutant for the biosynthesis of the amino acid histidine.
Example 1 was assessed in the bacterial reverse mutation assay (Ames) and in vitro micronucleus assay. All in vitro tests were conducted with and without exogenous metabolic activation using concentrations up to those limited by cytotoxicity or insolubility.

A short description of data set [2]: Brain homogenate free fraction, equilibrium dialysis. The conditions noted are these: mouse brain tissue homogenate; read-out: Binding Mouse Brain fu, br. The format is in vitro ADME. An excerpt: Brain fu,br: The free fraction of a compound in brain tissue homogenate preparation determined by in vitro equilibrium dialysis. It is understood that only unbound (free) compound is capable of engaging with the target.
(Equilibrium dialysis compares concentrations on both sides of a semipermeable membrane.)

For the compound `C[C@@H]1C[C@@H](NC(=O)c2nnc(-c3cccc(C#N)c3)o2)CN1C#N` [Example 1, N-((3R,5R)-1-Cyano-5-methylpyrrolidin-3-yl)-5-(3-cyanophenyl)-1,3,4-oxadiazole-2-carboxamide], in data set [1], the “induction of mutations, reverse mutation assay” value was “did not induce mutations”. In addition, in data set [2], the fraction unbound came to 0.26.
